Test results reported in US20240150423A1, “GLP-1 ANALOGUE-MODIFIED DIMERS WITH DIFFERENT CONFIGURATIONS, PREPARATION METHOD THEREOF, AND APPLICATION THEREOF IN TREATMENT OF TYPE II DIABETES” (Nanjing Finepeptide Biopharmaceutical Co.,Ltd, priority 2019, published 2024).
Non-standard residues stand in square brackets, D forms with d. No end group written: not given here. βAib = beta-Aib residue; βAla = NCCC(=O)O

Tested on: Normal Kunming (KM) mice
Experiment: multiple OGTT (mOGTT): hypoglycemic duration after a single administration
Assay type: in vivo
Conditions: monomeric peptides, single injection at the same dose (1.126 nmol), subcutaneous
In short: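 Single administration in normal Kunming mice, followed by oral glucose loading with tail-vein glucose sampled at 0–120 min (0, 10, 20, 40, 60, 120 min). Effective duration ended once mean glucose exceeded the NaCl control group on two occasions.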

Substance	Hypoglycemic [days]
His-Ala-Glu-Gly-Thr-Phe-Thr-Cys-Asp-Val-Ser-Ser-Tyr-Leu-Glu-Gly-Gln-Ala-Ala-Lys[N-ϵ-(N-α-Palmitoyl-L-γ-glutamyl)]-Glu-Phe-Ile-Ala-Trp-Leu-Val-Arg-Gly-Arg-Gly-NH2 (HAEGTFTCDVSSYLEGQAAXEFIAWLVRGRG; palmitoyl-gamma-Glu on Lys; C-terminal amide; Sequence is synthesized; (20)..(20) Xaa is 26Lys[N-e-(N-a-palmitoyl-L-g-glutamyl)]; (31)..(31) N-terminal) [G8 series 57]	2
His-Ala-Glu-Gly-Thr-Phe-Thr-Ser-Asp-Val-Ser-Cys-Tyr-Leu-Glu-Gly-Gln-Ala-Ala-Lys[N-ϵ-(N-α-oleoyl-L-γ-glutamyl)]-Glu-Phe-Ile-Ala-Trp-Leu-Val-Arg-Gly-Arg-Gly-OH (HAEGTFTSDVSCYLEGQAAXEFIAWLVRGRG; oleoyl-γ-glutamyl on Lys; C-terminal acid; Sequence is synthesized; (20)..(20) Xaa is 26Lys[N-e-(N-a-oleoyl-L-g-glutamyl)]; (31)..(31) C-terminal) [G3 series 21]	4
His-βAib-Glu-Gly-Thr-Phe-Thr-Ser-Asp-Val-Ser-Cys-Tyr-Leu-Glu-Gly-Gln-Ala-Ala-Lys-Glu-Phe-Ile-Ala-Trp-Leu-Val-Arg-βAib-Arg-NH2 (H[βAib]EGTFTSDVSCYLEGQAAKEFIAWLVR[βAib]R-NH2; also: disulfide-linked homodimer via Cys12) [G7 series 54]	2
His-aAib-Glu-Gly-Thr-Phe-Thr-Ser-Asp-Val-Ser-Cys-Tyr-Leu-Glu-Gly-Gln-Ala-Ala-Lys[N-ϵ-(N-α-oleoyl)]-Glu-Phe-Ile-Ala-Trp-Leu-Val-Arg-Gly-Arg-Gly-NH2 (HXEGTFTSDVSCYLEGQAAXEFIAWLVRGRG; not fully specified; Aib; oleoyl on Lys side chain; C-terminal amide; Sequence is synthesized; (2)..(2) Xaa is aAib; (20)..(20) Xaa is 26Lys[N-e-(N-a-oleoyl-L-g-glutamyl)]; (31)..(31) N-terminal) [G4 series 36]	8
His-Ala-Glu-Gly-Thr-Phe-Thr-Ser-Asp-Val-Cys-Ser-Tyr-Leu-Glu-Gly-Gln-Ala-Ala-Lys[N-ϵ-(N-α-oleoyl-L-γ-glutamyl)]-Glu-Phe-Ile-Ala-Trp-Leu-Val-Arg-Gly-Arg-Gly-NH2 (HAEGTFTSDVCSYLEGQAAXEFIAWLVRGRG; oleoyl-γ-glutamyl on Lys; C-terminal amide; Sequence is synthesized; (20)..(20) Xaa is 26Lys[N-e-(N-a-oleoyl-L-g-glutamyl)]; (31)..(31) N-terminal) [G2 series 10]	5
His-βAla-Glu-Gly-Thr-Phe-Thr-Ser-Asp-Val-Cys-Ser-Tyr-Leu-Glu-Gly-Gln-Ala-Ala-Lys-Glu-Phe-Ile-Ala-Trp-Leu-Val-Arg-βAla-Arg-NH2 (H[βAla]EGTFTSDVCSYLEGQAAKEFIAWLVR[βAla]R-NH2; not fully specified; printed as His-βAla-Glu-Gly-Thr-Phe-Thr-Ser-Asp-Val-Cys-Ser-Tyr-Leu-Glu-Gly-Gln-Ala-Ala-Lys-Glu-Phe-Ile-Ala-Trp-Leu-Val-Arg-βAla-Arg-NH2) [G2 series 19]	3
His-aAib-Glu-Gly-Thr-Phe-Thr-Cys-Asp-Val-Ser-Ser-Tyr-Leu-Glu-Gly-Gln-Ala-Ala-Lys[N-ϵ-(N-α-oleoyl-L-γ-glutamyl)]-Glu-Phe-Ile-Ala-Trp-Leu-Val-Arg-Gly-Arg-Gly-NH2 (HXEGTFTCDVSSYLEGQAAXEFIAWLVRGRG; Aib; oleoyl-gamma-Glu on Lys; C-terminal amide; Sequence is synthesized; (2)..(2) Xaa is aAib; (20)..(20) Xaa is 26Lys[N-e-(N-a-oleoyl-L-g-glutamyl)]; (31)..(31) N-terminal) [G8 series 62]	5
His-Ala-Glu-Gly-Thr-Phe-Thr-Ser-Asp-Val-Ser-Cys-Tyr-Leu-Glu-Gly-Gln-Ala-Ala-Lys[N-ϵ-(N-α-Palmitoyl)]-Glu-Phe-Ile-Ala-Trp-Leu-Val-Arg-Gly-Arg-Gly-NH2 (HAEGTFTSDVSCYLEGQAAXEFIAWLVRGRG; palmitoyl on Lys side chain; C-terminal amide; Sequence is synthesized; (20)..(20) Xaa is 26Lys[N-e-(N-a-palmitoyl-L-g-glutamyl)]; (31)..(31) N-terminal) [G4 series 35]	6
His-Ala-Glu-Gly-Thr-Phe-Thr-Ser-Asp-Val-Cys-Ser-Tyr-Leu-Glu-Gly-Gln-Ala-Ala-Lys[N-ϵ-(N-α-Palmitoyl-L-γ-glutamyl)]-Glu-Phe-Ile-Ala-Trp-Leu-Val-Arg-Gly-Arg-Gly-NH2 (HAEGTFTSDVCSYLEGQAAXEFIAWLVRGRG; palmitoyl-γ-glutamyl on Lys; C-terminal amide; Sequence is synthesized; (20)..(20) Xaa is Xaa is 26Lys[N-e-(N-a-Palmitoyl-g-glutamyl)]; (31)..(31) N-terminal) [G2 series 8]	5
His-Ala-Glu-Gly-Thr-Phe-Thr-Ser-Asp-Val-Cys-Ser-Tyr-Leu-Glu-Gly-Gln-Ala-Ala-Lys[N-ϵ-(N-α-Palmitoyl)]-Glu-Phe-Ile-Ala-Trp-Leu-Val-Arg-Gly-Arg-Gly-NH2 (HAEGTFTSDVCSYLEGQAAXEFIAWLVRGRG; palmitoyl on Lys; C-terminal amide; Sequence is synthesized; (20)..(20) Xaa is 26Lys[N-e-(N-a-palmitoyl-L-g-glutamyl)]; (31)..(31) N-terminal) [G4 series 25]	5
His-βAla-Glu-Gly-Thr-Phe-Thr-Ser-Asp-Val-Cys-Ser-Tyr-Leu-Glu-Gly-Gln-Ala-Ala-Lys[N-ϵ-(N-α-oleoyl-L-γ-glutamyl)]-Glu-Phe-Ile-Ala-Trp-Leu-Val-Arg-Gly-Arg-Gly-NH2 (HXEGTFTSDVCSYLEGQAAXEFIAWLVRGRG; β-amino acid; oleoyl-γ-glutamyl on Lys; C-terminal amide; Sequence is synthesized; (2)..(2) Xaa is bAla; (20)..(20) Xaa is 26Lys[N-e-(N-a-oleoyl-L-g-glutamyl)]; (31)..(31) N-terminal) [G2 series 18]	5

Same assay, conditions: single injection at the same dose (1.126 nmol), subcutaneous

Substance	Hypoglycemic duration [days]	Hypoglycemic duration (days)
2G4 series 27: disulfide-linked homodimer of monomer SEQ ID NO: 27 (HAEGTFTSDVCSYLEGQAAXEFIAWLVRGRG; not fully specified; disulfide-linked homodimer; Sequence is synthesized; (20)..(20) Xaa is 26Lys[N-e-(N-a-oleoyl-L-g-glutamyl)]; (31)..(31) N-terminal)	15	
2G5 series 40: disulfide-linked homodimer of monomer SEQ ID NO: 40 (HAEGTFTSDVSCYLEGQAAXEFIAWLVXGRG; disulfide-linked homodimer; Sequence is synthesized; (20)..(20) Xaa is 26Lys[N-e-(N-a-palmitoyl-L-g-glutamyl)]; (28)..(28) Xaa is 26Lys[N-e-(N-a-palmitoyl-L-g-glutamyl)]; (31)..(31) C-terminal)		3 (2G5 peptide) days
2G8 series 68: disulfide-linked homodimer of monomer SEQ ID NO: 68 (HXEGTFTCDVSSYLEGQAAXEFIAWLVRGRG; disulfide-linked homodimer; Sequence is synthesized; (2)..(2) Xaa is bAla; (20)..(20) Xaa is 26Lys[N-e-(N-a-oleoyl-L-g-glutamyl)]; (31)..(31) N-terminal)	7	
2G8 series 69: disulfide-linked homodimer of monomer SEQ ID NO: 69 (H[βAla]EGTFTCDVSSYLEGQAAKEFIAWLVR[βAla]R; also: disulfide-linked homodimer)	3	
2G4 series 26: disulfide-linked homodimer of monomer SEQ ID NO: 26 (HAEGTFTSDVCSYLEGQAAXEFIAWLVRGRG; not fully specified; disulfide-linked homodimer; Sequence is synthesized; (20)..(20) Xaa is 26Lys[N-e-(N-a-oleoyl-L-g-glutamyl)]; (31)..(31) C-terminal)	12	
2G4 series 30: disulfide-linked homodimer of monomer SEQ ID NO: 30 (HXEGTFTSDVCSYLEGQAAXEFIAWLVRGRG; not fully specified; disulfide-linked homodimer; Sequence is synthesized; (2)..(2) Xaa is bAib; (20)..(20) Xaa is 26Lys[N-e-(N-a-oleoyl-L-g-glutamyl)]; (31)..(31) N-terminal)	16	
2G8 series 57: disulfide-linked homodimer of monomer SEQ ID NO: 57 (HAEGTFTCDVSSYLEGQAAXEFIAWLVRGRG; disulfide-linked homodimer; Sequence is synthesized; (20)..(20) Xaa is 26Lys[N-e-(N-a-palmitoyl-L-g-glutamyl)]; (31)..(31) N-terminal)	5	
2G4 series 31: disulfide-linked homodimer of monomer SEQ ID NO: 31 (HXEGTFTSDVCSYLEGQAAXEFIAWLVRGRG; not fully specified; disulfide-linked homodimer; Sequence is synthesized; (2)..(2) Xaa is bAla; (20)..(20) Xaa is 26Lys[N-e-(N-a-oleoyl-L-g-glutamyl)]; (31)..(31) N-terminal)	15	
